# Source: patent US20200281194A1, “A Novel Green Micro-Emulsion for Controlling Fungal Wilt Diseases” (priority 2017, published 2020)
# System: FoL (Fusarium wilt of tomato)
# Assay: Wilt incidence pot study in tomato (AUDPC)
# Type: in vivo, Fusarium oxysporum
# Settings: @ 0.1%
# Procedure: For wilt incidence study, seeds, seedlings and soil are treated with above mentioned three concentrations of microemulsion formulation. In brief, soil is autoclaved and artificially inoculated with Fusarium spores (@ 2.6×10^5 spores/g soil). Seeds are treated with microemulsion formulations by the method used for germination study, but herein, seeds are sowed directly into 1 kg diseased pot. For seedling treatment, healthy eight-leaf staged seedlings of tomato are treated with three respective concentrations of microemulsion while in case of soil treatment; soil of pot is treated @ 5 ml per 150 cc soil. Healthy and untreated seedlings are taken as control. Each treatment has 5 replicates and all the pots are kept in the net house in Micro model, IITD for 45 days. Carbendazim (@0.1%) is taken as chemical control. For accessing the disease progression in the tomato plant, following grading system is used. Symptoms like yellowing of leaves, wilting of plant, height and weight of plant are examined and given a grade by comparing with the control having maximum diseases infection.
# Area under the disease progress curve (AUDPC) is a method to calculate the percentage inhibition of wilt disease and is calculated as:
# AUDPC=Σ[(Ri+1+Ri)/2][ti+1−ti], R=disease rating at the ith observation ti=time (days) since previous ratings at the ith observation, n=total number of observations.
structure (smiles),measurement,setting,value
"COC(=O)Nc1nc2ccccc2[nH]1 [carbendazim, Carbendazim]",Disease reduction % of FoL,Seedling treatment,60.02%
same,Disease reduction % of FoL,Soil treatment,71.24%
